Experimental data: paper PMC12689286, “Enhanced therapeutics of cabazitaxel via polycarboxylate conjugation: improved solubility, safety, and antitumor efficacy” (Frontiers in Immunology, 2025)

What was measured:
[1] = Lipid-aqueous (octanol/water) partition coefficient; assay type: physicochemical; conditions: room temperature
Method: CTXs were dissolved in octanol, and an equal volume of water was added, followed by shaken at 100 rpm for 24 h at room temperature. The upper octanol phase and lower water phase were separated by centrifugation. The supernatant was analyzed by HPLC (Bruker SolanX 70 FT-MS; Agilent 6540TOF) ([21]).

A549 = assay: MTS cytotoxicity, A549; assay type: cell-based; conditions: Homo sapiens
Method: (§1) Human cancer cell lines were cultured in basic medium (10% fetal bovine serum (FBS)+1% double antibody solution) (Biological Industries) at 37°C in a 5% CO2 incubator. Effects of CTXs on cell proliferation and viability were measured by an MTS (Promega Corporation) assay. Absorbance values at 490 nm were measured using a microplate reader (Thermo Scientific, Varioskan Flash) ([22]).

Bel-7402 = assay: MTS cytotoxicity, Bel-7402; assay type: cell-based; conditions: Homo sapiens; Bel-7402, MTS
Method: as §1

DU145 = assay: MTS cytotoxicity, DU145; assay type: cell-based; conditions: Homo sapiens, DU-145
Method: as §1

Fadu = assay: MTS cytotoxicity, Fadu; assay type: cell-based; conditions: Homo sapiens
Method: as §1

H358 = assay: MTS cytotoxicity, H358; assay type: cell-based; conditions: Homo sapiens, NCI-H358
Method: as §1

H460 = assay: MTS cytotoxicity, H460; assay type: cell-based; conditions: Homo sapiens, NCI-H460
Method: as §1

H520 = assay: MTS cytotoxicity, H520; assay type: cell-based; conditions: Homo sapiens, NCI-H520
Method: as §1

HCT 116 = assay: MTS cytotoxicity, HCT 116; assay type: cell-based; conditions: Homo sapiens; HCT 116, MTS
Method: as §1

HT-29 = assay: MTS cytotoxicity, HT-29; assay type: cell-based; conditions: Homo sapiens; HT-29, MTS
Method: as §1

LN229 = assay: MTS cytotoxicity, LN229; assay type: cell-based; conditions: Homo sapiens, LN-229
Method: as §1

MCF-7 = assay: MTS cytotoxicity, MCF-7; assay type: cell-based; conditions: Homo sapiens, MCF7; MCF-7, MTS
Method: as §1

PC-3 = assay: MTS cytotoxicity, PC-3; assay type: cell-based; conditions: Homo sapiens; PC-3, MTS
Method: as §1

SK-OV-3 = assay: MTS cytotoxicity, SK-OV-3; assay type: cell-based; conditions: Homo sapiens; SK-OV-3, MTS
Method: as §1

L-02 = assay: MTS cytotoxicity, L-02 (non-tumor); assay type: cell-based; conditions: Homo sapiens, L02, L-02 non-tumor cell line
Method: as §1

3T3 = assay: MTS cytotoxicity, 3T3 (non-tumor); assay type: cell-based; conditions: Mus musculus, NIH3T3, 3T3 non-tumor cell line
DU145 cells = assay: Cell cycle arrest (PI, flow cytometry); assay type: cell-based, human; conditions: 24 h
Method: Cells were incubated with drugs for 24 h. Fixed cells were incubated with RNase A and stained with propidium iodide (PI). DNA content was determined in a flow cytometer (BD FACS CaliburTM Flow Cytometer, USA) ([23]).

Hemolysis test = assay type: cell-based, SD rats; conditions: SD, rat, rat red blood cells, 2% (v/v) suspension, 37 °C, 1.5 h
Method: (§2) The hemolytic potential of CTX formulations was evaluated using rat red blood cells (RBCs). Briefly, whole blood was collected from the abdominal aorta of anesthetized SD rats into ACD anticoagulant (blood:ACD = 1:4, v/v). The blood was diluted with normal saline (4:5, v/v) and centrifuged at 450 g for 10 min. The RBC pellet was washed three times with normal saline until the supernatant was clear. The washed RBCs were then resuspended in normal saline to prepare a 2% (v/v) suspension.
(§3) For the assay, 500 μL of the 2% RBC suspension was mixed with an equal volume of serially diluted drugs or controls in 1.5 mL tubes. The controls included: Negative control (0% hemolysis): normal saline. Positive control (100% hemolysis): distilled water. Solvent control: the vehicle for unmodified CTX (2.5% Tween 80 + 2.5% anhydrous ethanol + 95% normal saline). The mixtures were incubated at 37 °C for 1.5 h and then centrifuged at 450 g for 5 min. Subsequently, 150 μL of the supernatant from each tube was transferred to a 96-well plate, and the absorbance at 545 nm (OD545) was measured using a microplate reader. The percentage of hemolysis was calculated using the following formula: Hemolysis (%) = [(ODsample - ODnegative control)/(ODpositive control - ODnegative control)] × 100.

[2] = tested on: rat red blood cells (RBCs); assay: Hemolysis test; assay type: cell-based, SD rats; conditions: vs unmodified CTX
Method: as §2, §3

[3] = tested on: DU145 prostate cancer model; assay: DU145 prostate cancer xenograft, tumor volume; assay type: in vivo, BALB/c nude mice; conditions: 3 μmol/kg tail vein, three times at 3-day intervals, control 500 ± 45 mm³
Method: (§4) All animal experiments were conducted in accordance with protocols approved by the Institutional Animal Care and Use Committee of Peking Union Medical College. Male BALB/c nude mice (6–8 weeks old) and female KM mice (6–8 weeks old) were purchased from Charles River Laboratories (Beijing, China) and maintained under specific pathogen-free conditions.
DU145 Prostate cancer model: DU145 cells (3×10^6 cells/mouse) were subcutaneously inoculated into the right flank of BALB/c nude mic. When tumors reached approximately 100 mm³, mice were randomly divided into four treatment groups (n=6/group): (a) Vehicle control; (b) CTX (3 μmol/kg); (c) CTX-TTHA (3 μmol/kg); (d) CTX-DTPA (3 μmol/kg). Treatments were administered via tail vein injection three times at 3-day intervals. Major organs were collected for histopathological examination after the final administration.

MCF-7 xenografts = assay: MCF-7 breast cancer xenograft, tumor volume; assay type: in vivo, BALB/c nude mice; conditions: MCF-7 xenograft, 9.6 μmol/kg
Method: as §4
MCF-7 Breast Cancer Model: Female BALB/c nude mice bearing MCF-7 xenografts (2×10^6 cells/mouse) were randomized into treatment groups as described above, with an adjusted dose of 9.6 μmol/kg for all CTX formulations.

[4] = Systemic toxicity in H22 tumor-bearing mice (body weight, blood count); assay type: in vivo, KM mice; conditions: H22 mice, throughout treatment, across all dose groups (9.6 and 19.1 μmol/kg)
Method: H22 hepatoma model: Female KM mice were subcutaneously implanted with H22 cells (2×10^6 cells/mouse) and assigned to six groups: (a) Vehicle control; (b) CTX (9.6 μmol/kg in 5% glucose with 2.5% ethanol/2.5% Tween 80); (c) CTX-TTHA (9.6 μmol/kg in saline); (d) CTX-DTPA (9.6 μmol/kg in saline); (e) CTX-TTHA (19.1 μmol/kg in saline); (f) CTX-DTPA (19.1 μmol/kg in saline).
Treatments were administered every other day for four doses (three doses for CTX group due to weight loss >15%). Peripheral blood samples were collected for complete blood count analysis using an automated hematology analyzer.

[5] = Plasma pharmacokinetics (non-compartmental); conditions: SD rats
Method: (§5) Male and female SD rats (200–220 g) received intravenous injections of CTX or CTX-DTPA (6 μmol/kg). CTX was dissolved in 2.5% Tween 80/2.5% EtOH/saline, while CTX-DTPA used saline alone. Blood samples were collected at 5 min to 24 h post-dose. Tissues (heart, liver, spleen, lung, kidney, thymus) and excreta were collected at 15 min, 2 h, 4 h, and 12 h. Plasma and tissue samples were processed by liquid-liquid extraction with n-butanol and analyzed via LC-MS/MS (Agilent Poroshell 120 EC-C18 column; 0.05% formic acid/acetonitrile gradient). Pharmacokinetic parameters were calculated using DAS 2.0 via non-compartmental analysis.

Tissue distribution = conditions: CTX metabolite after CTX-DTPA 6 μmol/kg iv, SD rats
Method: as §5

[6] = CTX-DTPA 6 μmol/kg iv, plasma, CTX metabolite derived from CTX-DTPA

For COC1C(=O)C2(C)C(OC)CC3OCC3(OC(C)=O)C2C(OC(=O)c2ccccc2)C2(O)CC(OC(=O)C(OC(=O)CN(CCN(CCN(CCN(CC(=O)O)CC(=O)O)CC(=O)O)CC(=O)O)CC(=O)O)C(NC(=O)OC(C)(C)C)c3ccccc3)C(C)=C1C2(C)C (stereo not shown) [CTX-TTHA], the logP at 24 h [1] was -1.37 ± 0.38, the IC50 (A549) was 3.3 ± 1.6 nM and the IC50 (Bel-7402) was 2.4 ± 0.4 nM. It also gave an IC50 (DU145) of 4.1 ± 2.2 nM, an IC50 (Fadu) of 2.3 ± 0.9 nM and an IC50 (H358) of 1.6 ± 0.4 nM. It also gave an IC50 (H460) of 1.9 ± 0.7 nM, an IC50 (H520) of 2.1 ± 0.6 nM and an IC50 (HCT 116) of 2.1 ± 0.9 nM. It also gave an IC50 (HT-29) of 8.4 ± 3.8 nM, an IC50 (LN229) of 7.6 ± 3.1 nM and an IC50 (MCF-7) of 5.5 ± 2.3 nM. For the same compound, the IC50 (PC-3) was 7.4 ± 2.8 nM, the IC50 (SK-OV-3) was 3.2 ± 0.8 nM and the IC50 (L-02) was 6.8 ± 0.4 nM. The IC50 (3T3) was 8 ± 3.3 nM, the “cells arrested in G2/M” value (DU145 cells; DU145, 1 nM) was 15.1 ± 0.1% and the “cells arrested in G2/M” value (DU145 cells; DU145, 25 nM) was 69.9 ± 12.6%. The hemolysis at 1.5 h, 300 nmol/mL (Hemolysis test; 300 nmol/mL (maximum tested), read-out: hemolysis rate) was 28.3 ± 13.9%, the hemolysis at 1.5 h (Hemolysis test; concentrations up to 150 nmol/mL) was under 2% and the “improvement in hemocompatibility over unmodified CTX” value [2] was 64 fold. For the same compound, the final tumor volume [3] was 270 ± 28 mm³, the “tumor volume at study endpoint” value (MCF-7 xenografts) was 190 ± 22 mm³ and the WBC counts [4] was 3.50-5.60 ×10^9/L.
For CO[C@H]1C(=O)[C@]2(C)[C@@H](OC)C[C@H]3OC[C@@]3(OC(C)=O)[C@H]2[C@H](OC(=O)c2ccccc2)[C@]2(O)C[C@H](OC(=O)[C@H](O)[C@@H](NC(=O)OC(C)(C)C)c3ccccc3)C(C)=C1C2(C)C [CTX/CTX-DTPA], the “Cmax relative to CTX” value ([5]; 6 μmol/kg iv, CTX metabolite from CTX-DTPA vs CTX group, greater) was 2.2 fold, the AUC(0-t) [5, 6] was “**** 5157.71 ± 1650.87 μg/L*h” and the CL [5, 6] was 25.2 ± 6.83 mL/min/kg. The Cmax [5, 6] was “* 6311.67 ± 1217.79 μg/L”, the MRT0-t [5, 6] was 0.72 ± 0.02 H and the Vd [5, 6] was “* 6.04 ± 1.63 L/kg”. For the same compound, the t1/2 [5, 6] was “**** 2.77 ± 0.00 H”, the tissue concentration (Tissue distribution; heart, 15 min) was “* 2.38 ± 0.46 μg/kg” and the tissue concentration (Tissue distribution; heart, 2 h) was “*** 2.27 ± 0.70 μg/kg”. The tissue concentration (Tissue distribution; heart, 4 h) was “*** 1.26 ± 0.20 μg/kg”, the tissue concentration (Tissue distribution; heart, 12 h) was “** 0.41 ± 0.29 μg/kg” and the tissue concentration (Tissue distribution; kidney, 15 min) was “**** 53.38 ± 7.21 μg/kg”. For the same compound, the tissue concentration (Tissue distribution; kidney, 2 h) was “** 63.87 ± 43.92 μg/kg”, the tissue concentration (Tissue distribution; kidney, 4 h) was “*** 8.74 ± 0.10 μg/kg” and the tissue concentration (Tissue distribution; kidney, 12 h) was “**** 3.14 ± 1.66 μg/kg”. For the same compound, the tissue concentration (Tissue distribution; liver, 15 min) was “*** 17.88 ± 1.12 μg/kg”, the tissue concentration (Tissue distribution; liver, 2 h) was “** 10.31 ± 7.28 μg/kg” and the tissue concentration (Tissue distribution; liver, 4 h) was “** 4.62 ± 3.48 μg/kg”. For the same compound, the tissue concentration (Tissue distribution; liver, 12 h) was “* 1.91 ± 1.12 μg/kg”, the tissue concentration (Tissue distribution; lung, 15 min) was “*** 12.95 ± 5.49 μg/kg” and the tissue concentration (Tissue distribution; lung, 2 h) was “**** 9.66 ± 5.84 μg/kg”. For the same compound, the tissue concentration (Tissue distribution; lung, 4 h) was “**** 2.44 ± 0.01 μg/kg”, the tissue concentration (Tissue distribution; lung, 12 h) was “* 1.78 ± 0.82 μg/kg” and the tissue concentration (Tissue distribution; spleen, 15 min) was “** 5.49 ± 0.53 μg/kg”. For the same compound, the tissue concentration (Tissue distribution; spleen, 2 h) was “**** 8.23 ± 4.20 μg/kg”, the tissue concentration (Tissue distribution; spleen, 4 h) was “** 2.61 ± 0.42 μg/kg” and the tissue concentration (Tissue distribution; spleen, 12 h) was “** 1.43 ± 0.96 μg/kg”. For the same compound, the tissue concentration (Tissue distribution; thymus, 15 min) was “** 1.49 ± 0.02 μg/kg”, the tissue concentration (Tissue distribution; thymus, 2 h) was “* 4.37 ± 5.02 μg/kg” and the tissue concentration (Tissue distribution; thymus, 4 h) was “* 0.79 ± 0.28 μg/kg”. For the same compound, the tissue concentration (Tissue distribution; thymus, 12 h) was “**** 0.80 ± 0.42 μg/kg”.
